PubChem BioAssay (NCI)
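Results reflect a 48-hour exposure of cells in 96-well plates to compound at five concentrations. Here, GI50 denotes the concentration required for 50% inhibition of growth. Definition used: TGI = concentration required for complete inhibition of growth.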

Experiments:
Experiment in all cases: NCI anticancer screen, dose series, 48 h
[1] = tested on: ACHN renal
[2] = tested on: SF-268 CNS
[3] = tested on: 786-0 renal
[4] = tested on: LOX IMVI melanoma
[5] = tested on: UO-31 renal
[6] = tested on: T-47D breast
[7] = tested on: NCI/ADR-RES ovarian
[8] = tested on: BT-549 breast
[9] = tested on: MALME-3M melanoma
[10] = tested on: MOLT-4 leukemia
[11] = tested on: A549 NSCLC
[12] = tested on: A498 renal
[13] = tested on: CAKI-1 renal
[14] = tested on: HL-60(TB) leukemia
[15] = tested on: UACC-257 melanoma
[16] = tested on: HT29 colon
[17] = tested on: SK-MEL-5 melanoma
[18] = tested on: HS 578T breast
[19] = tested on: SK-OV-3 ovarian
[20] = tested on: SW-620 colon
[21] = tested on: M14 melanoma
[22] = tested on: HOP-92 NSCLC
[23] = tested on: SNB-75 CNS
[24] = tested on: EKVX NSCLC
[25] = tested on: HCT-116 colon
[26] = tested on: SK-MEL-2 melanoma
[27] = tested on: OVCAR-5 ovarian
[28] = tested on: MDA-MB-231 breast
[29] = tested on: TK-10 renal
[30] = tested on: UACC-62 melanoma
[31] = tested on: NCI-H522 lung
[32] = tested on: RXF 393 renal
[33] = tested on: OVCAR-4 ovarian
[34] = tested on: KM12 colon
[35] = tested on: K-562 leukemia
[36] = tested on: SN12C renal
[37] = tested on: U251 CNS
[38] = tested on: HCT-15 colon
[39] = tested on: CCRF-CEM leukemia
[40] = tested on: IGROV1 ovarian
[41] = tested on: MCF7 breast
[42] = tested on: NCI-H460 lung
[43] = tested on: NCI-H226 lung
[44] = tested on: DU-145 prostate
[45] = tested on: HOP-62 NSCLC
[46] = tested on: SF-295 CNS
[47] = tested on: SK-MEL-28 melanoma
[48] = tested on: SNB-19 CNS
[49] = tested on: NCI-H23 lung
[50] = tested on: PC-3 prostate
[51] = tested on: COLO 205 colon
[52] = tested on: SR leukemia
[53] = tested on: MDA-MB-435
[54] = tested on: OVCAR-8 ovarian
[55] = tested on: SF-539 CNS
[56] = tested on: HCC-2998 colon

`CCn1c(SCC(=O)Nc2cccc(C(=O)/C=C/c3cc(OC)c(OC)c(OC)c3)c2)nc2ccccc2c1=O` gave a GI50 [1] of 2.29 µM, a TGI [1] of 6.61 µM and a GI50 [2] of 4.13 µM. For the same molecule, the TGI [2] was greater than 100 µM, the GI50 [3] was 1.94 µM and the TGI [3] was 3.92 µM. It also gave a GI50 [4] of 1.18 µM, a TGI [4] of 2.63 µM and a GI50 [5] of 1.7 µM. It also gave a TGI [5] of 6.42 µM, a GI50 [6] of 5.08 µM and a TGI [6] greater than 100 µM. It also gave a GI50 [7] of 2.89 µM, a TGI [7] of 15.4 µM and a GI50 [8] of 2.66 µM. For the same molecule, the TGI [8] was 9.31 µM, the GI50 [9] was 6.52 µM and the TGI [9] was greater than 100 µM. It also gave a GI50 [10] of 3.55 µM, a TGI [10] greater than 100 µM and a GI50 [11] of 3.05 µM. The TGI [11] was 30.8 µM, the GI50 [12] was 2.15 µM and the TGI [12] was 9.11 µM. The GI50 [13] was 3.75 µM, the TGI [13] was greater than 100 µM and the GI50 [14] was 3.38 µM. The TGI [14] was greater than 100 µM, the GI50 [15] was 12.5 µM and the TGI [15] was greater than 100 µM. For the same molecule, the GI50 [16] was 2.07 µM, the TGI [16] was 4.39 µM and the GI50 [17] was 9.79 µM. It also gave a TGI [17] of 32 µM, a GI50 [18] of 3.64 µM and a TGI [18] greater than 100 µM. It also gave a GI50 [19] of 16.2 µM, a TGI [19] of 76.3 µM and a GI50 [20] of 2.48 µM. For the same molecule, the TGI [20] was 7.05 µM, the GI50 [21] was 2.9 µM and the TGI [21] was greater than 100 µM. The GI50 [22] was 3.17 µM, the TGI [22] was greater than 100 µM and the GI50 [23] was 2.65 µM. It also gave a TGI [23] greater than 100 µM, a GI50 [24] of 4.26 µM and a TGI [24] of 56.7 µM. It also gave a GI50 [25] of 1.73 µM, a TGI [25] of 3.75 µM and a GI50 [26] of 3.3 µM. It also gave a TGI [26] of 15.3 µM, a GI50 [27] of 2.36 µM and a TGI [27] of 5.65 µM. It also gave a GI50 [28] of 5.26 µM, a TGI [28] greater than 100 µM and a GI50 [29] of 7.08 µM. For the same molecule, the TGI [29] was greater than 100 µM, the GI50 [30] was 4.43 µM and the TGI [30] was 76.7 µM. It also gave a GI50 [31] of 2.86 µM, a TGI [31] of 9.29 µM and a GI50 [32] of 1.56 µM. The TGI [32] was 7.82 µM, the GI50 [33] was 5.52 µM and the TGI [33] was greater than 100 µM. The GI50 [34] was 1.89 µM, the TGI [34] was 4.52 µM and the GI50 [35] was 3.19 µM. The TGI [35] was greater than 100 µM, the GI50 [36] was 3.86 µM and the TGI [36] was greater than 100 µM. It also gave a GI50 [37] of 2.35 µM, a TGI [37] of 6.46 µM and a GI50 [38] of 2.27 µM. The TGI [38] was 9.62 µM, the GI50 [39] was 2.57 µM and the TGI [39] was greater than 100 µM. For the same molecule, the GI50 [40] was 1.8 µM, the TGI [40] was 4.31 µM and the GI50 [41] was 2.3 µM. The TGI [41] was greater than 100 µM, the GI50 [42] was 2.6 µM and the TGI [42] was 11.7 µM. The GI50 [43] was 1.91 µM, the TGI [43] was 5.55 µM and the GI50 [44] was 2.36 µM. It also gave a TGI [44] of 6.12 µM, a GI50 [45] of 2.46 µM and a TGI [45] of 6.78 µM. It also gave a GI50 [46] of 4.1 µM, a TGI [46] of 20.6 µM and a GI50 [47] of 3.66 µM. The TGI [47] was greater than 100 µM, the GI50 [48] was 3.89 µM and the TGI [48] was greater than 100 µM. For the same molecule, the GI50 [49] was 2.63 µM, the TGI [49] was 8.58 µM and the GI50 [50] was 5.09 µM. For the same molecule, the TGI [50] was greater than 100 µM, the GI50 [51] was 3.91 µM and the TGI [51] was 89.1 µM. The GI50 [52] was 1.29 µM, the TGI [52] was greater than 100 µM and the GI50 [53] was 3.12 µM. The TGI [53] was 48.2 µM, the GI50 [54] was 3.16 µM and the TGI [54] was greater than 100 µM. For the same molecule, the GI50 [55] was 2.3 µM, the TGI [55] was 5.77 µM and the GI50 [56] was 2 µM. For the same molecule, the TGI [56] was 4.49 µM.
